Results taken from patent US20260248879A1, “METHODS OF USING A GCG/GLP1 CO-AGONIST FOR THERAPY” (ELI LILLY AND COMPANY, priority 2022, published 2026).

Tests used:
[1] = tested on: patients with T2DM; assay: Example 1 study: fasting pharmacodynamic markers (glucose, insulin, C-peptide, glucagon, lipids, HOMA indices); assay type: in vivo, human; settings: for mean HOMA-B index: baseline 9.108
Description: Fasting plasma samples for glucose and insulin are explored as secondary PD markers. Exploratory PD may include, but are not limited to plasma glucagon, C-peptide, native OXM, lipid panel (triglycerides, total cholesterol, low-density lipoprotein cholesterol, and high-density lipoprotein cholesterol), beta cell function, and homeostatic model assessment (HOMA) indices.
Plasma concentrations of at least glucose, glucagon, insulin, C-peptide and native OXM, are assayed using validated analytical methods.
In respect of Cohort 1, PD sampling occurs at baseline and Days 1, 3 (48 hours post administration of Compound 1), 8, 22, 29, 50, 57, 78 and 80. […]

[2] = tested on: patients with T2DM; assay: Example 1 study: appetite analysis (VAS); assay type: in vivo, human
Text: To explore the effects of Compound 1 on meal intake and appetite sensation, subjects are asked to rate their appetite sensations using a 100-mm visual analogue scale
(VAS) for parameters of hunger, fullness, satiety, and prospective food consumption in the fasted state while inpatient as well as on scheduled outpatient visits. The VAS is a validated tool to assess appetite sensation parameters (Flint et al., Int J Obes Relat Metab Disord., 2000; 24(1):38-48). The VAS is presented as a 10-cm (100-mm) line, anchored by verbal descriptors, usually “extremely” and “not at all.” Subjects are required to rate their subjective sensations on four 100-mm scales combined with questions similar to the following: • “How hungry do you feel?” • “How satisfied do you feel?” • “How full do you feel?” • “How much do you think you could eat?”
Overall appetite score is calculated as the average of the 4 individual scores: satiety plus fullness plus (100−prospective food consumption) plus (100−hunger)/4 (van Can et al., Int J Obes (Lond). 2014; 38(6):784-793). The higher overall appetite score indicates less appetite, and the lower score indicates more appetite.
In respect of […], the satiety VAS (after fasting) is completed at baseline and Days 1, 29, 57, 78 and 80.
In respect of […], the satiety VAS (after fasting) is completed at baseline and Days 1, 22, 43, 64, 85, 106 and 108.
When the satiety VAS assessment coincides with the MMTT, it is performed pre-meal and 1 hour and 4 hours post MMTT.

[3] = Example 1 study: pharmacokinetics, population PK modeling; settings: for AUC(0-168)ss, geometric mean (CV %) / Cmax, ss, geometric mean: model-predicted steady state
Description: Up to two samples may be collected at additional time points during the study if warranted and agreed upon between both the investigator and sponsor.
All available PK data is utilized for model development.

[4] = Cohort 1, escalated to 4.5 mg, Day 78 and Day 80
[5] = Cohort 1, escalated to 4.5 mg, Day 80
[6] = Cohort 2, escalated to 6.0 mg, Day 64
[7] = Cohort 2, escalated to 8.0 mg, Day 85
[8] = Cohort 2, escalated to 10.0 mg, Day 106 and Day 108
[9] = Cohort 2, escalated to 10.0 mg, Day 108
[10] = both treatment groups, over dosing periods

For CC(C)C[C@H](NC(=O)[C@H](CC(C)C)NC(=O)[C@H](Cc1c[nH]c2ccccc12)NC(=O)[C@H](CCC(=O)O)NC(=O)[C@@H](NC(=O)[C@H](Cc1ccccc1)NC(=O)[C@H](CCC(=O)O)NC(=O)[C@H](CCCCNC(=O)COCCOCCNC(=O)COCCOCCNC(=O)CC[C@H](NC(=O)CCCCCCCCCCCCCCCCCCC(=O)O)C(=O)O)NC(=O)[C@H](C)NC(=O)[C@H](CCCCN)NC(=O)[C@H](CCCCN)NC(=O)[C@H](CCC(=O)O)NC(=O)[C@H](CC(=O)O)NC(=O)[C@H](CC(C)C)NC(=O)[C@H](Cc1ccc(O)cc1)NC(=O)[C@H](CCCCN)NC(=O)[C@H](CO)NC(=O)[C@H](Cc1ccc(O)cc1)NC(=O)[C@H](CC(=O)O)NC(=O)[C@H](CO)NC(=O)[C@@H](NC(=O)[C@H](Cc1ccccc1)NC(=O)[C@@H](NC(=O)CNC(=O)[C@H](CCC(N)=O)NC(=O)C(C)(C)NC(=O)[C@@H](N)Cc1c[nH]cn1)[C@@H](C)O)[C@@H](C)O)C(C)C)C(=O)N[C@@H](CCC(=O)O)C(=O)NCC(=O)NCC(=O)N1CCC[C@H]1C(=O)N[C@@H](CO)C(=O)N[C@@H](CO)C(=O)NCC(N)=O [Compound 1], the mean fasting glucagon ([1]; Cohort 1, escalated to 4.5 mg, Day 78, baseline 14.79 pmol/L) was 6.65 pmol/L, the mean fasting C-peptide ([1]; Cohort 1, escalated to 4.5 mg, Day 78, baseline 667 pmol/L) was 820 pmol/L and the mean fasting triglyceride ([1]; Cohort 1, escalated to 4.5 mg, Day 78, baseline 2.938) was 1.456 mmol/L. For the same compound, the “mean HOMA-IR index” value ([1]; Cohort 1, escalated to 4.5 mg, Day 78, baseline 4.704) was 4.289, the “mean fasting total cholesterol” value ([1]; Cohort 1, escalated to 4.5 mg, Day 78, baseline 5.065) was 4.275 mmol/L and the mean fasting insulin ([1]; Cohort 1, escalated to 4.5 mg, Day 78, baseline 9.648) was 13.362 mIU/L. For the same compound, the “approximate decrease of HOMA-IR from baseline” value (from here on “approximate decrease of HOMA-IR”) [1, 4] was ~9%, the “approximate decrease of fasting LDL cholesterol from baseline” value [1, 4] was ~10% and the “approximate decrease of fasting glucagon from baseline” value [1, 4] was 45-55%. The “approximate decrease of fasting total cholesterol from baseline” value [1, 4] was 12-16%, the “approximate decrease of fasting triglyceride from baseline” value [1, 4] was 29-50% and the “approximate increase of fasting C-peptide from baseline” value [1, 4] was 22-31%. The “approximate increase of fasting insulin from baseline” value [1, 4] was 38-46%, the “mean fasting LDL cholesterol” value ([1]; Cohort 1, escalated to 4.5 mg, Day 78 and Day 80, baseline 2.852) was 2.56 mmol/L and the “approximate increase of HOMA-B from baseline” value (“approximate increase of HOMA-B” for short) [1, 5] was ~145%. The “approximate reduction of mean fasting glucose from baseline” value [1, 5] was ~40%, the mean fasting glucagon ([1]; Cohort 1, escalated to 4.5 mg, Day 80, baseline 14.79 pmol/L) was 8.19 pmol/L and the mean fasting C-peptide ([1]; Cohort 1, escalated to 4.5 mg, Day 80, baseline 667 pmol/L) was 875 pmol/L. For the same compound, the mean fasting triglyceride ([1]; Cohort 1, escalated to 4.5 mg, Day 80, baseline 2.938) was 2.084 mmol/L, the “mean fasting total cholesterol” value ([1]; Cohort 1, escalated to 4.5 mg, Day 80, baseline 5.065) was 4.461 mmol/L and the mean fasting insulin ([1]; Cohort 1, escalated to 4.5 mg, Day 80, baseline 9.648) was 14.046 mIU/L. For the same compound, the mean fasting glucose ([1]; Cohort 1, escalated to 4.5 mg, Day 80, baseline 10.78) was 6.52 mmol/L, the “approximate decrease of fasting glucagon from baseline” value ([1]; Cohort 2, escalated to 6.0 mg) was ~63% and the “approximate increase of fasting C-peptide from baseline” value ([1]; Cohort 2, escalated to 6.0 mg) was ~12%. The “approximate increase of fasting insulin from baseline” value ([1]; Cohort 2, escalated to 6.0 mg) was ~14%, the “approximate decrease of HOMA-IR” value [1, 6] was ~20% and the “approximate decrease of fasting LDL cholesterol from baseline” value [1, 6] was ~29%. The “approximate decrease of fasting total cholesterol from baseline” value [1, 6] was ~26%, the “approximate decrease of fasting triglyceride from baseline” value [1, 6] was ~43% and the “approximate increase of HOMA-B” value [1, 6] was ~76%. The mean fasting triglyceride ([1]; Cohort 2, escalated to 6.0 mg, Day 64, baseline 1.867) was 1.055 mmol/L, the “mean HOMA-IR index” value ([1]; Cohort 2, escalated to 6.0 mg, Day 64, baseline 2.7) was 2.158 and the “mean fasting LDL cholesterol” value ([1]; Cohort 2, escalated to 6.0 mg, Day 64, baseline 2.796) was 1.997 mmol/L. For the same compound, the “mean fasting total cholesterol” value ([1]; Cohort 2, escalated to 6.0 mg, Day 64, baseline 4.971) was 3.673 mmol/L, the “mean HOMA-B index” value [1, 6] was 16.072 and the mean fasting insulin ([1]; Cohort 2, escalated to 6.0 mg, baseline 5.892) was 6.73 mIU/L. The mean fasting glucagon ([1]; Cohort 2, escalated to 6.0 mg, baseline 9.83) was 3.65 pmol/L, the mean fasting C-peptide ([1]; Cohort 2, escalated to 6.0 mg, baseline 532.8) was 597 pmol/L and the “approximate increase of fasting C-peptide from baseline” value ([1]; Cohort 2, escalated to 8.0 mg) was “approximately 2%”. The “approximate increase of fasting insulin from baseline” value ([1]; Cohort 2, escalated to 8.0 mg) was ~12%, the mean fasting glucagon ([1]; Cohort 2, escalated to 8.0 mg, Day 80 (so in the source), baseline 9.83) was 2 pmol/L and the “approximate decrease of HOMA-IR” value [1, 7] was “approximately 27%”. For the same compound, the “approximate decrease of fasting LDL cholesterol from baseline” value [1, 7] was “approximately 30%”, the “approximate decrease of fasting total cholesterol from baseline” value [1, 7] was “approximately 27%” and the “approximate decrease of fasting triglyceride from baseline” value [1, 7] was “approximately 54%”. The “approximate increase of HOMA-B” value [1, 7] was “approximately 83%”, the mean fasting triglyceride ([1]; Cohort 2, escalated to 8.0 mg, Day 85, baseline 1.867) was 0.855 mmol/L and the “mean HOMA-IR index” value ([1]; Cohort 2, escalated to 8.0 mg, Day 85, baseline 2.7) was 1.976. For the same compound, the “mean fasting LDL cholesterol” value ([1]; Cohort 2, escalated to 8.0 mg, Day 85, baseline 2.796) was 1.954 mmol/L, the “mean fasting total cholesterol” value ([1]; Cohort 2, escalated to 8.0 mg, Day 85, baseline 4.971) was 3.614 mmol/L and the “mean HOMA-B index” value [1, 7] was 16.689. The mean fasting insulin ([1]; Cohort 2, escalated to 8.0 mg, baseline 5.892) was 6.589 mIU/L, the mean fasting C-peptide ([1]; Cohort 2, escalated to 8.0 mg, baseline 532.8) was 542 pmol/L and the “approximate decrease of fasting C-peptide from baseline” value ([1]; Cohort 2, escalated to 10.0 mg) was ~18%. The “approximate decrease of fasting insulin from baseline” value ([1]; Cohort 2, escalated to 10.0 mg) was ~20%, the “approximate decrease of fasting total cholesterol from baseline” value ([1]; Cohort 2, escalated to 10.0 mg) was ~31% and the mean fasting triglyceride ([1]; Cohort 2, escalated to 10.0 mg, Day 106, baseline 1.867) was 0.86 mmol/L. For the same compound, the “mean fasting LDL cholesterol” value ([1]; Cohort 2, escalated to 10.0 mg, Day 106, baseline 2.796) was 1.859 mmol/L, the “mean fasting total cholesterol” value ([1]; Cohort 2, escalated to 10.0 mg, Day 106, baseline 4.971) was 3.454 mmol/L and the mean fasting insulin ([1]; Cohort 2, escalated to 10.0 mg, Day 106, baseline 5.892) was 5.355 mIU/L. The mean fasting glucagon ([1]; Cohort 2, escalated to 10.0 mg, Day 106, baseline 9.83) was 1.98 pmol/L, the mean fasting C-peptide ([1]; Cohort 2, escalated to 10.0 mg, Day 106, baseline 532.8) was 511 pmol/L and the “approximate decrease of fasting LDL cholesterol from baseline” value [1, 8] was 33-34%. For the same compound, the “approximate decrease of fasting triglyceride from baseline” value [1, 8] was 47-54%, the “approximate decrease of HOMA-IR” value [1, 9] was ~51% and the “approximate increase of HOMA-B” value [1, 9] was ~33%. For the same compound, the “approximate reduction of mean fasting glucose from baseline” value [1, 9] was ~43%, the mean fasting triglyceride ([1]; Cohort 2, escalated to 10.0 mg, Day 108, baseline 1.867) was 0.985 mmol/L and the “mean fasting LDL cholesterol” value ([1]; Cohort 2, escalated to 10.0 mg, Day 108, baseline 2.796) was 1.849 mmol/L. For the same compound, the “mean fasting total cholesterol” value ([1]; Cohort 2, escalated to 10.0 mg, Day 108, baseline 4.971) was 3.441 mmol/L, the mean fasting insulin ([1]; Cohort 2, escalated to 10.0 mg, Day 108, baseline 5.892) was 4.74 mIU/L and the mean fasting glucagon ([1]; Cohort 2, escalated to 10.0 mg, Day 108, baseline 9.83) was 1.93 pmol/L. For the same compound, the mean fasting glucose ([1]; Cohort 2, escalated to 10.0 mg, Day 108, baseline 10.46) was 5.91 mmol/L, the mean fasting C-peptide ([1]; Cohort 2, escalated to 10.0 mg, Day 108, baseline 532.8) was 435 pmol/L and the “mean fasting HDL levels” value ([1]; Cohort 2, over the dosing period (FIG. 7c)) was “decreased from baseline”. The “reduction of fasting LDL cholesterol” value ([1]; dose 8.0 mg or higher) was ≥ 30%, the “reduction of fasting insulin resistance indices” value ([1]; dose 10 mg or greater) was 50% and the “reduction of fasting insulin resistance indices” value ([1]; dose greater than 6.0 mg) was “greater than 25%”. For the same compound, the “reduction of fasting plasma glucagon” value ([1]; dose greater than 6.0 mg) was “approximately 80%”, the “reduction of fasting triglyceride” value ([1]; dose greater than 6.0 mg) was ≥ 50% and the “reduction of fasting total cholesterol” value ([1]; dose greater than 8.0 mg) was “more than 30%”. For the same compound, the overall appetite scores ([2]; all treatment groups incl. placebo, 12-week or 16-week dosing, higher score = less appetite) was “generally increase from baseline”, the hunger scores ([2]; both treatment groups, majority of time points) was “decrease from baseline” and the fullness scores [2, 10] was “increased from baseline”. The satiety scores [2, 10] was “decrease from baseline”, the VAS appetite assessments ([2]; higher dose cohort (FIG. 8)) was “reduced hunger, increased satiety, decreased overall appetite” and the Vd/F ([3]; human, plasma, sc) was 9.52 L. For the same compound, the “AUC(0-168)ss, geometric mean (CV %)” value ([3]; 4.5 mg QW) was 106000 (22.5%) ng · h/mL, the “Cmax, ss, geometric mean” value ([3]; 4.5 mg QW) was 698 ng/mL and the “AUC(0-168)ss, geometric mean (CV %)” value ([3]; 10 mg QW) was 239000 (23.9%) ng · h/mL. For the same compound, the “Cmax, ss, geometric mean” value ([3]; 10 mg QW) was 1570 ng/mL and the “Absorption rate constant, KA, population mean estimate” value ([3]; population PK model, 355 concentrations from 18 patients, SC QW) was 0.0299 h⁻¹.
